Results published in patent EP4793267A1, “CARBONATE CONTAINING LIPID COMPOUNDS AND COMPOSITIONS FOR INTRACELLULAR DELIVERY OF THERAPEUTIC AGENTS” (ModernaTX, Inc., priority 2019, dated 2021).

What was measured:
[1] = Residual parent lipid levels in the liver after LNP administration to mice; type: in vivo; settings: 24 h after intravenous LNP administration, CD-1 mice
Method: (§1) To assess potency of expression and metabolic stability of lipids of the disclosure the hepatocyte protein expression (hEPO) following administration of a nanoparticle of the disclosure (e.g., a loaded LNP) to mice was measured.
(§2) Lipid nanoparticles (LNPs) including DSPC as a phospholipid, cholesterol as a structural lipid, PEG-1 as a PEG lipid, a compound according to Formula (A), (A1), (A2), (A3), (B), (1), (I'), (I-X), (I-Y), (I-Ya) (IA), (Ia), (Ib), (Ic), (Id), (Ie), (If), (Ig), (II), (IIa), or (IIb), and an mRNA encoding hEPO were intravenously administered to CD-1 mice. The concentration of hEPO in serum was tested at 6 h after injection. […] Table 2. Expression of hEPO induced by administration of LNPs comprising lipids of the disclosure in mice and residual lipid levels in the liver.

[2] = system: hepatocyte protein expression (hEPO); test: Expression of hEPO induced by LNPs comprising the lipid and hEPO mRNA in mice; type: in vivo; settings: LNP with DSPC, cholesterol, PEG-1, mRNA encoding hEPO, CD-1 mice; for hEPO AUC: intravenous; for Mean 6 hr hEPO Concentration (mIU/mL): serum, 6 h after intravenous injection
Method: as §1, §2

Parent Lipid Remaining (nmol/g liver tissue) at 24 h [1]	SMILES	hEPO AUC [2]	Mean 6 hr hEPO Concentration (mIU/mL) [2]
3 ± 1 nmol/g liver tissue	CCCCCCCCCOC(=O)OCCCCCCN(CCO)CCCCCCCC(=O)OC(CCCCCCCC)CCCCCCCC [Compound 6, Heptadecan-9-yl 8-((2-hydroxyethyl)(6-(((nonyloxy)carbonyl)oxy)hexyl)amino)octanoate]	8.19E+06	509181.4 mIU/mL
72 ± 17 nmol/g liver tissue	CCCCCCCCC(CCCCCCCC)OC(=O)CCCCCCCN(CCO)CCCCCCOC(=O)OCCC(CCCCC)CCCCC [Compound 64, Heptadecan-9-yl 8-((2-hydroxyethyl)(6-((((3-pentyloctyl)oxy)carbonyl)oxy)hexyl)amino)octanoate]	1.11E+07	735556.2 mIU/mL
364 ± 58 nmol/g liver tissue	CCCCCCCCC(CCCCCCCC)OC(=O)CCCCCCCN(CCCCCCOC(=O)OCCC(CCCCCC)CCCCCC)CCCNc1c(NC)c(=O)c1=O [Compound 65, Heptadecan-9-yl 8-((6-((((3-hexylnonyl)oxy)carbonyl)oxy)hexyl)(3-((2-(methylamino)-3,4-dioxocyclobut-1-en-1-yl)amino)propyl)amino)octanoate]	7.76E+06	521341.6 mIU/mL
67 ± 8 nmol/g liver tissue	CCCCCCCCC(CCCCCCCC)OC(=O)CCCCCCCN(CCO)CCCCCCOC(=O)OCCC(CCCCCC)CCCCCC [Compound 66, Heptadecan-9-yl 8-((6-((((3-hexylnonyl)oxy)carbonyl)oxy)hexyl)(2-hydroxyethyl)amino)octanoate]	9.77E+06	641899.1 mIU/mL
94 ± 15 nmol/g liver tissue	CCCCCCCCC(CCCCCCCC)OC(=O)CCCCCCCN(CCCCCCOC(=O)OCCC(CCCCC)CCCCC)CCCNc1c(NC)c(=O)c1=O [Compound 67, Heptadecan-9-yl 8-((3-((2-(methylamino)-3,4-dioxocyclobut-1-en-1-yl)amino)propyl)(6-((((3-pentyloctyl)oxy)carbonyl)oxy)hexyl)amino)octanoate]	1.31E+07	891982.2 mIU/mL
